Measurements taken from PubChem BioAssay AID328 (DTP/NCI, 2004).
“And” between values parts separate entries of the source, which are not always exact repeats. Identical values can stand only once. Toxic doses and inconclusive results are not listed.

Tested on: BDF1 mice, P388 leukemia ip, median survival T/C
Assay: NCI In Vivo Anticancer Drug Screen. Data for tumor model P388 Leukemia (intraperitoneal) in B6D2F1 (BDF1) mice
Conditions: endpoint: median survival time, higher = longer survival
How it was run: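 In tumour-bearing mice, survival after compound treatment is set against the vehicle group and given as a quotient.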

[1] = dose: 25.0 mg/kg/injection, schedule: Q04DX003 (ip), vehicle: Klucel (hydroxypropylcellulose) (HPC)
[2] = dose: 50.0 mg/kg/injection, schedule: Q01DX009 (ip), vehicle: Klucel (hydroxypropylcellulose) (HPC)
[3] = dose: 50.0 mg/kg/injection, schedule: Q04DX003 (ip), vehicle: Klucel (hydroxypropylcellulose) (HPC)
[4] = dose: 100.0 mg/kg/injection, schedule: Q01DX009 (ip), vehicle: Klucel (hydroxypropylcellulose) (HPC)
[5] = dose: 100.0 mg/kg/injection, schedule: Q04DX003 (ip), vehicle: Klucel (hydroxypropylcellulose) (HPC)
[6] = dose: 200.0 mg/kg/injection, schedule: Q01DX009 (ip), vehicle: Klucel (hydroxypropylcellulose) (HPC)
[7] = dose: 200.0 mg/kg/injection, schedule: Q04DX003 (ip), vehicle: Klucel (hydroxypropylcellulose) (HPC)
[8] = dose: 400.0 mg/kg/injection, schedule: Q04DX003 (ip), vehicle: Klucel (hydroxypropylcellulose) (HPC)
[9] = dose: 12.5 mg/kg/injection, schedule: Q04DX003 (ip), vehicle: saline with Tween-80
[10] = dose: 25.0 mg/kg/injection, schedule: Q01DX009 (ip), vehicle: Klucel (hydroxypropylcellulose) (HPC)
[11] = dose: 50.0 mg/kg/injection, schedule: Q04DX003 (ip), vehicle: saline
[12] = dose: 100.0 mg/kg/injection, schedule: Q04DX003 (ip), vehicle: saline
[13] = dose: 200.0 mg/kg/injection, schedule: Q04DX003 (ip), vehicle: saline
[14] = dose: 50.0 mg/kg/injection, schedule: Q01DX009 (ip), vehicle: saline

With `CC(=O)NNC(=O)c1ccccc1` the T/C (dose: 12.0 mg/kg/injection, schedule: Q04DX003 (ip), vehicle: Klucel (hydroxypropylcellulose) (HPC)) was 104 % of control, the T/C [1] was 100 % of control and the T/C [2] was 87 % of control. The T/C [3] was 104 % of control, the T/C (dose: 75.0 mg/kg/injection, schedule: Q01DX009 (ip), vehicle: Klucel (hydroxypropylcellulose) (HPC)) was 105 % of control and the T/C (dose: 75.0 mg/kg/injection, schedule: Q04DX003 (ip), vehicle: Klucel (hydroxypropylcellulose) (HPC)) was 100 % of control. The T/C [4] was 87 % of control, the T/C [5] was 90 % of control and the T/C (dose: 150.0 mg/kg/injection, schedule: Q01DX009 (ip), vehicle: Klucel (hydroxypropylcellulose) (HPC)) was 110 % of control. The T/C [6] was 91 % of control, the T/C [7] was 95 % of control and 100 % of control and the T/C [8] was 109 % of control and 118 % of control.

`CCc1ccc2c(c1)N(CCCN(CCCl)CCCl)c1ccccc1S2` was tested, and the T/C (dose: 1.56 mg/kg/injection, schedule: Q04DX003 (ip), vehicle: saline with Tween-80) was 102 % of control and 104 % of control, the T/C (dose: 3.12 mg/kg/injection, schedule: Q04DX003 (ip), vehicle: saline with Tween-80) was 93 % of control and 104 % of control and the T/C (dose: 6.25 mg/kg/injection, schedule: Q04DX003 (ip), vehicle: saline with Tween-80) was 118 % of control. For the same molecule, the T/C [9] was 163 % of control.

With `N#CSCc1ccc(Cl)c(CSC#N)c1` the T/C (dose: 8.0 mg/kg/injection, schedule: Q01DX009 (ip), vehicle: Klucel (hydroxypropylcellulose) (HPC)) was 110 % of control, the T/C (dose: 12.0 mg/kg/injection, schedule: Q01DX009 (ip), vehicle: Klucel (hydroxypropylcellulose) (HPC)) was 117 % of control and the T/C (dose: 12.5 mg/kg/injection, schedule: Q01DX009 (ip), vehicle: Klucel (hydroxypropylcellulose) (HPC)) was 160 % of control. For the same molecule, the T/C (dose: 16.5 mg/kg/injection, schedule: Q04DX003 (ip), vehicle: Klucel (hydroxypropylcellulose) (HPC)) was 115 % of control, the T/C [1] was 115 % of control and the T/C (dose: 37.0 mg/kg/injection, schedule: Q04DX003 (ip), vehicle: Klucel (hydroxypropylcellulose) (HPC)) was 123 % of control.

`O=[N+]([O-])c1cccc(OCCCOc2ccccc2)c1` was tested, and the T/C (dose: 100.0 mg/kg/injection, schedule: Q01DX009 (ip), vehicle: other) was 100 % of control, the T/C (dose: 100.0 mg/kg/injection, schedule: Q04DX003 (ip), vehicle: other) was 110 % of control and the T/C (dose: 200.0 mg/kg/injection, schedule: Q01DX009 (ip), vehicle: other) was 100 % of control. The T/C (dose: 200.0 mg/kg/injection, schedule: Q04DX003 (ip), vehicle: other) was 110 % of control, the T/C (dose: 400.0 mg/kg/injection, schedule: Q01DX009 (ip), vehicle: other) was 100 % of control and the T/C (dose: 400.0 mg/kg/injection, schedule: Q04DX003 (ip), vehicle: other) was 100 % of control.

`CCOC1=CCCCC1` was tested, and the T/C (dose: 100.0 mg/kg/injection, schedule: Q01DX009 (ip), vehicle: saline) was 113 % of control, the T/C (dose: 200.0 mg/kg/injection, schedule: Q01DX009 (ip), vehicle: saline) was 115 % of control and 122 % of control and the T/C (dose: 400.0 mg/kg/injection, schedule: Q01DX009 (ip), vehicle: saline) was 118 % of control.

`Cc1cc(C)n(CO)n1` was tested, and the T/C [10] was 96 % of control, the T/C [2] was 107 % of control and the T/C [5] was 108 % of control. For the same molecule, the T/C [7] was 100 % of control.

`COc1ccc2c(c1)N(C(=O)N(CCOC(=O)Nc1ccccc1)CCOC(=O)Nc1ccccc1)c1ccccc1S2` was tested, and the T/C (dose: 25.0 mg/kg/injection, schedule: Q01DX009 (ip), vehicle: saline with Tween-80) was 95 % of control and the T/C (dose: 50.0 mg/kg/injection, schedule: Q01DX009 (ip), vehicle: saline with Tween-80) was 91 % of control.

`CN(C)C` was tested, and the T/C [11] was 100 % of control, the T/C [12] was 100 % of control and the T/C [13] was 109 % of control.

In the case of `O=C(Nc1ccc2ccccc2c1)c1ccccc1`, the T/C (dose: 100.0 mg/kg/injection, schedule: Q01DX001 (ip), vehicle: saline sonified) is reported as 95 % of control, the T/C (dose: 200.0 mg/kg/injection, schedule: Q01DX001 (ip), vehicle: saline sonified) is reported as 100 % of control and the T/C (dose: 400.0 mg/kg/injection, schedule: Q01DX001 (ip), vehicle: saline sonified) is reported as 100 % of control.

With `CC(C)(C)C1CC[N-]CC1.CC(C)(C)C1CC[N-]CC1.[Cl][Pt+2][Cl]` the T/C [10] was 104 % of control, the T/C [2] was 106 % of control and the T/C [4] was 117 % of control. For the same molecule, the T/C [6] was 107 % of control.

For `C/C(=N\[N+](C)(C)C)c1ccccc1`, the T/C [11] was 95 % of control and the T/C [12] was 109 % of control.

For `OC1CC2CCC(C1)N2CCCN1c2ccccc2Sc2ccc(Cl)cc21` (configuration not stated), the T/C (dose: 25.0 mg/kg/injection, schedule: Q01DX009 (ip), vehicle: saline) was 104 % of control, the T/C [14] was 91 % of control and the T/C [12] was 90 % of control.

`C[C@]12CC[C@H](O)C[C@@H]1CC[C@@H]1[C@@H]2C(=O)C[C@@]2(C)[C@H]1CC[C@]2(O)C(=O)CBr` was tested, and the T/C (dose: 12.5 mg/kg/injection, schedule: Q01DX009 (ip), vehicle: saline with Tween-80) was 114 % of control, the T/C [2] was 113 % of control and the T/C [4] was 109 % of control. The T/C [5] was 100 % of control, the T/C (dose: 200.0 mg/kg/injection, schedule: Q01DX009 (ip), vehicle: saline with Tween-80) was 118 % of control and the T/C [7] was 109 % of control. For the same molecule, the T/C [8] was 113 % of control.

In the case of `COCCOC1=C(N2CC2)C(=O)C(OCCOC)=C(N2CC2)C1=O`, the T/C (dose: 0.26 mg/kg/injection, schedule: Q01DX009 (ip), vehicle: saline) is reported as 99 % of control, the T/C (dose: 0.4 mg/kg/injection, schedule: Q01DX009 (ip), vehicle: saline) is reported as 108 % of control and the T/C (dose: 0.88 mg/kg/injection, schedule: Q01DX009 (ip), vehicle: saline) is reported as 163 % of control. For the same molecule, the T/C (dose: 0.88 mg/kg/injection, schedule: Q04DX003 (ip), vehicle: saline) was 121 % of control, the T/C (dose: 0.9 mg/kg/injection, schedule: Q01DX009 (ip), vehicle: saline) was 108 % of control and the T/C (dose: 1.0 mg/kg/injection, schedule: Q01DX009 (ip), vehicle: saline) was 171 % of control and 180 % of control. For the same molecule, the T/C (dose: 1.32 mg/kg/injection, schedule: Q01DX009 (ip), vehicle: saline) was 209 % of control, the T/C (dose: 1.32 mg/kg/injection, schedule: Q04DX003 (ip), vehicle: saline) was 113 % of control and the T/C (dose: 2.0 mg/kg/injection, schedule: Q01DX009 (ip), vehicle: saline) was 223 % of control and 263 % of control and 220 % of control. The T/C (dose: 3.0 mg/kg/injection, schedule: Q01DX009 (ip), vehicle: saline) was 231 % of control, the T/C (dose: 3.0 mg/kg/injection, schedule: Q04DX003 (ip), vehicle: saline) was 152 % of control and the T/C (dose: 3.3 mg/kg/injection, schedule: Q04DX003 (ip), vehicle: saline) was 186 % of control. For the same molecule, the T/C (dose: 4.0 mg/kg/injection, schedule: Q01DX009 (ip), vehicle: saline) was 109 % of control and 115 % of control, the T/C (dose: 5.0 mg/kg/injection, schedule: Q04DX003 (ip), vehicle: saline) was 209 % of control and the T/C (dose: 6.25 mg/kg/injection, schedule: Q04DX003 (ip), vehicle: saline) was 236 % of control. The T/C (dose: 7.5 mg/kg/injection, schedule: Q04DX003 (ip), vehicle: saline) was 272 % of control and the T/C (dose: 12.5 mg/kg/injection, schedule: Q04DX003 (ip), vehicle: saline) was 118 % of control.

In the case of `COC(=O)C1C2CC[N+]3(CCCCC13)O2` (configuration not stated), the T/C (dose: 3.13 mg/kg/injection, schedule: Q01DX009 (ip), vehicle: saline) is reported as 100 % of control, the T/C (dose: 6.25 mg/kg/injection, schedule: Q01DX009 (ip), vehicle: saline) is reported as 100 % of control and the T/C (dose: 12.5 mg/kg/injection, schedule: Q01DX009 (ip), vehicle: saline) is reported as 93 % of control and 109 % of control. For the same molecule, the T/C [14] was 105 % of control.

`C=CC(=O)Oc1ccc(Cl)cc1` was tested, and the T/C [9] was 100 % of control, the T/C (dose: 25.0 mg/kg/injection, schedule: Q04DX003 (ip), vehicle: saline with Tween-80) was 104 % of control and the T/C (dose: 50.0 mg/kg/injection, schedule: Q04DX003 (ip), vehicle: saline with Tween-80) was 118 % of control.

With `CC1OCC2OC(C)OC(C(COC(c3ccccc3)(c3ccccc3)c3ccccc3)OS(C)(=O)=O)C2O1` (configuration not stated) the T/C [12] was 100 % of control, the T/C [13] was 104 % of control and the T/C (dose: 400.0 mg/kg/injection, schedule: Q04DX003 (ip), vehicle: saline) was 108 % of control.

`CCN(CC)CCCC#CCN1CCCCC1` was tested, and the T/C [10] was 100 % of control, the T/C [1] was 91 % of control and the T/C [2] was 90 % of control. For the same molecule, the T/C [3] was 91 % of control, the T/C [4] was 100 % of control and the T/C [5] was 91 % of control.
